Patent US9840510B1, “Pyrazolo[1,5-a]pyrimidinyl carboxamide compounds and their use in the treatment of medical disorders” (Lysosomal Therapeutics Inc., priority 2016, dated 2017)
In brackets after ≈: the same amount, converted by molar mass.

Assay: Compound solubility in water
Assay type: physicochemical
With `Cc1cc(-c2cccc(C#N)c2)nc2c(C(=O)NC(C)(C)C3CC3)cnn12` [III-71] the solubility was 0.5 µg/mL (≈ 1.39 µM).
For `COc1cccc(-c2cc(C)n3ncc(C(=O)N[C@H](C)C(F)(F)F)c3n2)c1` [III-90], the solubility was 2 µg/mL (≈ 5.29 µM).
`Cc1cc(-c2nc3ccccc3[nH]2)nc2c(C(=O)NC(C3CC3)C(F)(F)F)cnn12` (stereo not shown) [III-311] showed a solubility of 0.6 µg/mL (≈ 1.45 µM).
`Cc1cc(N2CCCC(F)(F)C2)nc2c(C(=O)NC(C3CC3)C(F)(F)F)cnn12` (stereo not shown) [III-66] gave a solubility of 0.3 µg/mL (≈ 0.719 µM).
Compound `Cc1cc(-c2cccc(-n3cccn3)c2)nc2c(C(=O)NC(C3CC3)C(F)(F)F)cnn12` (stereo not shown) [III-415] has a solubility of 1.2 µg/mL (≈ 2.72 µM).
With `Cc1cc(-c2ccc(F)c(C#N)c2)nc2c(C(=O)NC(C3CC3)C(F)(F)F)cnn12` (stereo not shown) [III-158] the solubility was 0.3 µg/mL (≈ 0.719 µM).
`Cc1cc(-c2cc(F)ccc2C#N)nc2c(C(=O)N[C@@H](C)C3CC3)cnn12` [III-396] gave a solubility of 0.3 µg/mL (≈ 0.826 µM).
For `Cc1cc(N2CCN(CC(F)(F)F)C2=O)nc2c(C(=O)NC(C3CC3)C(F)(F)F)cnn12` (stereo not shown) [III-233], the solubility was 0.7 µg/mL (≈ 1.51 µM).
Compound `Cc1cc(-c2cccc(Cl)n2)nc2c(C(=O)N[C@@H](C)C3CC3)cnn12` [III-131] has a solubility of 0.6 µg/mL (≈ 1.69 µM).
For `Cc1cc(-c2cncc(C(F)(F)F)c2)nc2c(C(=O)N[C@@H](C)C(F)(F)F)cnn12` [III-287], the solubility was 2.4 µg/mL (≈ 5.75 µM).
With `Cc1cc(C)n2ncc(C(=O)NC(C)(C)C3CC4(CCC4)C3)c2n1` [III-13] the solubility was 0.3 µg/mL (≈ 0.919 µM).
For `Cc1cc(-c2sccc2C#N)nc2c(C(=O)NC(C3CC3)C(F)(F)F)cnn12` (stereo not shown) [III-189], the solubility was 5.1 µg/mL (≈ 12.6 µM).
For `Cc1coc(-c2cc(C)n3ncc(C(=O)N[C@@H](C4CC4)C(F)(F)F)c3n2)n1` [III-256], the solubility was 0.5 µg/mL (≈ 1.32 µM).
`Cc1cc(N2CCC(F)(F)CC2)nc2c(C(=O)NC(C)C(F)(F)F)cnn12` (stereo not shown) [III-181] showed a solubility of 4.5 µg/mL (≈ 11.5 µM).
`COCc1cc(-c2cccc(F)c2)nc2c(C(=O)NC(C)(C)C3CC3)cnn12` [III-74] gave a solubility of 0.8 µg/mL (≈ 2.09 µM).
With `Cc1cc(Cl)n2ncc(C(=O)NC(C)(C)C3CC3)c2n1` [III-14] the solubility was 10.7 µg/mL (≈ 36.5 µM).
Work on `Cc1cc(-c2ccc(F)cc2)nc2c(C(=O)N[C@@H](C)C(F)(F)F)cnn12` [III-360] yielded a solubility of 0.7 µg/mL (≈ 1.91 µM).
For `Cc1cc(-c2ccc3ocnc3c2)nc2c(C(=O)N[C@H](C)C(F)(F)F)cnn12` [III-167], the solubility was 0.7 µg/mL (≈ 1.8 µM).
Compound `Cc1cc(-c2cccnc2C#N)nc2c(C(=O)N[C@H](C3CC3)C(F)(F)F)cnn12` [III-365] has a solubility of 1.8 µg/mL (≈ 4.5 µM).
Work on `Cc1cc(NC2CC2)nc2c(C(=O)N[C@@H](C)C3CC3)cnn12` [III-166] yielded a solubility of 10.9 µg/mL (≈ 36.4 µM).
For `Cc1cncc(-c2cc(C)n3ncc(C(=O)NC(C)C(F)(F)F)c3n2)c1` (stereo not shown) [III-282], the solubility was 6.2 µg/mL (≈ 17.1 µM).
With `Cc1cc(-c2ccco2)nc2c(C(=O)NC(C3CC3)C(F)(F)F)cnn12` (stereo not shown) [III-186] the solubility was 0.6 µg/mL (≈ 1.65 µM).
With `COc1c(F)cccc1-c1cc(C)n2ncc(C(=O)NC(C3CC3)C(F)(F)F)c2n1` (stereo not shown) [III-139] the solubility was 0.1 µg/mL (≈ 0.237 µM).
In the case of `Cc1cc(C)n2ncc(C(=O)N[C@H]3CC[C@H](OCC(C)C)CC3)c2n1` [III-191], the solubility is reported as 26.3 µg/mL (≈ 76.4 µM).
For `Cc1nc(-c2cc(C)n3ncc(C(=O)NC(C4CC4)C(F)(F)F)c3n2)co1` (stereo not shown) [III-249], the solubility was 0.6 µg/mL (≈ 1.58 µM).
`Cc1cc(-c2ccc(F)cc2)n2nc(Cl)c(C(=O)N[C@@H](C)C3CC3)c2n1` [III-33] showed a solubility of 0.5 µg/mL (≈ 1.34 µM).
`Cc1cc(-c2cccc(-c3ncc[nH]3)c2)nc2c(C(=O)NC(C3CC3)C(F)(F)F)cnn12` (stereo not shown) [III-102] showed a solubility of 0.4 µg/mL (≈ 0.908 µM).
`Cc1ccc(-c2cc(C)n3ncc(C(=O)N[C@H](C4CC4)C(F)(F)F)c3n2)cn1` [III-279] showed a solubility of 1.5 µg/mL (≈ 3.85 µM).
`Cc1cc(-c2cncc(C(F)(F)F)c2)nc2c(C(=O)NC(C)C(F)(F)F)cnn12` (stereo not shown) [III-285] gave a solubility of 1.2 µg/mL (≈ 2.88 µM).
`Cc1cc(N2CCCC(F)(F)C2)nc2c(C(=O)NC(C)C(F)(F)F)cnn12` (stereo not shown) [III-179] showed a solubility of 1.1 µg/mL (≈ 2.81 µM).
Work on `Cc1cc(C)n2ncc(C(=O)N[C@@H](C3CC3)C(F)(F)F)c2n1` [III-11] yielded a solubility of 13.4 µg/mL (≈ 42.9 µM).
Compound `Cc1cc(N2CCCCC2)nc2c(C(=O)NC(C)C3CC3)cnn12` (stereo not shown) [III-31] has a solubility of 43.5 µg/mL (≈ 133 µM).
With `CCc1cc(N2CCN(C(C)C)C2=O)nc2c(C(=O)NC(C3CC3)C(F)(F)F)cnn12` (stereo not shown) [III-224] the solubility was 1.2 µg/mL (≈ 2.74 µM).
With `Cc1cc(-c2cccc(Cl)n2)nc2c(C(=O)N[C@H](C)C(F)(F)F)cnn12` [III-235] the solubility was 6.4 µg/mL (≈ 16.7 µM).
For `Cc1cc(-c2cncc(Cl)c2)nc2c(C(=O)NC(C3CC3)C(F)(F)F)cnn12` (stereo not shown) [III-119], the solubility was 0.08 µg/mL (≈ 0.195 µM).
In the case of `Cc1cc(C)n2ncc(C(=O)N[C@@H](C)C3CCCCC3)c2n1` [III-4], the solubility is reported as 16.1 µg/mL (≈ 53.6 µM).
`Cc1cc(-c2cccc(F)c2)nc2c(C(=O)N[C@H](C)C3CC3)cnn12` [III-92] gave a solubility of 0.2 µg/mL (≈ 0.591 µM).
`Cc1cc(-c2cccc(-c3ncon3)c2)nc2c(C(=O)NC(C3CC3)C(F)(F)F)cnn12` (stereo not shown) [III-176] showed a solubility of 0.2 µg/mL (≈ 0.452 µM).
In the case of `Cc1cc(-c2cccnc2C(F)(F)F)nc2c(C(=O)N[C@H](C3CC3)C(F)(F)F)cnn12` [III-355], the solubility is reported as 0.1 µg/mL (≈ 0.226 µM).
For `Cc1cc(-c2cccnc2)n2ncc(C(=O)NC(C)(C)C3CC3)c2n1` [III-19], the solubility was 5.3 µg/mL (≈ 15.8 µM).
`Cc1cc(-c2ccc3scnc3c2)nc2c(C(=O)N[C@@H](C)C3CC3)cnn12` [III-192] showed a solubility of 0.2 µg/mL (≈ 0.53 µM).
In the case of `Cc1cc(-c2cccnc2Cl)nc2c(C(=O)NC(C3CC3)C(F)(F)F)cnn12` (stereo not shown) [III-123], the solubility is reported as 2.1 µg/mL (≈ 5.12 µM).
Work on `Cc1cc(N2C[C@@H](c3ccccc3)OC2=O)nc2c(C(=O)NC(C3CC3)C(F)(F)F)cnn12` (stereo partly shown) [III-315] yielded a solubility of 0.1 µg/mL (≈ 0.218 µM).
